Here are results for two compounds from PMC10562900 (RSC Advances, 2023).

What all share (format): biochemical
Experiment [1] concerns the target T1, h-e5′NT (Homo sapiens, UniProt P21589).
T1 sequence (P21589 27-574): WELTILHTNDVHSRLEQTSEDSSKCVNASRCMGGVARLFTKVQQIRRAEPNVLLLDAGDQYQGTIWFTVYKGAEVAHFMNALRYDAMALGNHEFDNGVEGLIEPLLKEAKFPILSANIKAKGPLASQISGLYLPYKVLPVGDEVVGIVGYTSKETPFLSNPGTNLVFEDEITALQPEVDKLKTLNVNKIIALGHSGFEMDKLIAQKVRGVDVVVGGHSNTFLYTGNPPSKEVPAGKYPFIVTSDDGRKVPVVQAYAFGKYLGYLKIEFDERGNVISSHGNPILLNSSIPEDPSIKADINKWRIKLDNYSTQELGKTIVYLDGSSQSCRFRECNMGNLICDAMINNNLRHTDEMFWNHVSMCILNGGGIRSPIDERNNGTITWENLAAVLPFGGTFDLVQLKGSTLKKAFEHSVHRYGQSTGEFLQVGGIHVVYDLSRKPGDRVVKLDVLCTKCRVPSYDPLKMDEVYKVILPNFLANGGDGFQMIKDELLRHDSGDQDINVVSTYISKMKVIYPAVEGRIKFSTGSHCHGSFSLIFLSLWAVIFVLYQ
Put plainly: CD73.

In experiment [2] the target is T2, r-e5′NT (Rattus norvegicus, UniProt P21588).
T2 sequence (P21588 29-576): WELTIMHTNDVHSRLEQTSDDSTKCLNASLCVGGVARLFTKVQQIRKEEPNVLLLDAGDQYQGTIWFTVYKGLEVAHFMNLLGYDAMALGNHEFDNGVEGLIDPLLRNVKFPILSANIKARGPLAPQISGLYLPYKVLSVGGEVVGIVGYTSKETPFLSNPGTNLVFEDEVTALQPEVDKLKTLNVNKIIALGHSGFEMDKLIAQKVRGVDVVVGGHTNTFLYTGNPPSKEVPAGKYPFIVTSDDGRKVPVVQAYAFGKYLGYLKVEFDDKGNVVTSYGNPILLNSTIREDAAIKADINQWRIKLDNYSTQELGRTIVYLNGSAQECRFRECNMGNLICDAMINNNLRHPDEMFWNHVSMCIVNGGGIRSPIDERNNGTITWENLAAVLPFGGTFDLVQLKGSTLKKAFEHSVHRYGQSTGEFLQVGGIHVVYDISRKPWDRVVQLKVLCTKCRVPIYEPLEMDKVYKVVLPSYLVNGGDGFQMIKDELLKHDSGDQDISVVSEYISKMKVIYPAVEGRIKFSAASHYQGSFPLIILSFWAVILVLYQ
Put plainly: Enzyme kinetic studies, r-e5′NT. As to conditions: Lineweaver–Burk.

Experiment [3] has as its target T3, h-TNAP (Homo sapiens, UniProt P05186).
T3 sequence (P05186 18-524): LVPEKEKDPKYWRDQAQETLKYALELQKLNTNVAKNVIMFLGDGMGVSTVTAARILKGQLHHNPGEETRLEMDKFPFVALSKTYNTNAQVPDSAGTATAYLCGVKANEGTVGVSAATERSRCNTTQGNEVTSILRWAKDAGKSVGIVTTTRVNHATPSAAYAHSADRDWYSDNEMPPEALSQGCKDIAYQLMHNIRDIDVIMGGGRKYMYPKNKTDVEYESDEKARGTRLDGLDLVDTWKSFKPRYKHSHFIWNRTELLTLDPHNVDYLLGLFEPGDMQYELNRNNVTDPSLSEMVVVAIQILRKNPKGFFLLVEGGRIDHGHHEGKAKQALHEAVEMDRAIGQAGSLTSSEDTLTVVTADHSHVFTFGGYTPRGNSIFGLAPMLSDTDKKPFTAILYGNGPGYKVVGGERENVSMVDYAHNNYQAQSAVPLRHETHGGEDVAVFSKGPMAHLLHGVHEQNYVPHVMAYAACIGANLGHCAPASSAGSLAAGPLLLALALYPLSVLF
Put plainly: h-TNAP inhibition assay.

The target of experiment [4] is T2, r-e5′NT. Put plainly: CD73.
In experiment [5] the target is T1, h-e5′NT. Put plainly: Enzyme kinetic studies, h-e5′NT. The conditions noted are these: Lineweaver–Burk.

Broadly, the IC50 is the point on the concentration scale where inhibition reaches its midpoint. Read a high IC50 as a need for much substance.

As for `O=C(Cc1c[nH]c2ccccc12)Nc1ccccc1OS(=O)(=O)c1ccc(I)cc1` [5i, 2-(2-(1H-indol-3-yl)acetamido)phenyl 4-iodobenzenesulfonate], the IC50 in experiment [1] turned out to be 4850 ± 550 nM; in experiment [3], 2270 ± 240 nM; in experiment [4], 810 ± 50 nM. In experiment [2], the “Mode of inhibition r-e5′NT” value was “competitive”.

As for `O=C(Cc1c[nH]c2ccccc12)Nc1ccccc1OS(=O)(=O)c1ccc(F)cc1` [5c, 2-(2-(1H-indol-3-yl)acetamido)phenyl 4-fluorobenzenesulfonate], the IC50 in experiment [1] is 370 ± 30 nM; in experiment [3], 1480 ± 20 nM; in experiment [4] it was 1660 ± 40 nM. Further, the “Mode of inhibition h-e5′NT” value in experiment [5] was “un-competitive”.
